Assay results: EP0941220B1, “A PROCESS FOR RECOVERY OF ASCORBIC ACID” (Yissum Research And Development Company Of The Hebrew …, priority 1996, dated 1998)

Assay: Temperature sensitivity of carboxylic acid extraction by 0.5 mol/kg Alamine 304 + 10% octanol in kerosene
Type: physicochemical
Details: distribution coefficient at 30°C divided by that at 75°C
Description: Referring now to said patents and the teachings thereof, one finds that the process taught therein utilizes the effect of temperature on phosphoric and carboxylic acid extraction by amine-based extractants. The term "amine" as used herein means water-immiscible amine, with a total of at least 20 carbon atoms on its chains. Said patents teach that such amine-based extractants (ABE) lose much of their extraction efficiency upon temperature elevation. This loss of efficiency is referred to as "temperature sensitivity of extraction" (TS). The magnitude of this TS can be represented by the ratio of the distribution coefficient at the lower temperature (DT1) to the distribution coefficient at the higher temperature (DT2). High TS provides for the purification and the concentration of carboxylic acids through altering the temperature between extraction and back-extraction. The acid is extracted from a feed solution by an ABE at low temperature, and is then stripped or back-extracted with water at an elevated temperature. […] This process is referred to herein as the "temperature swing process" (TSP).

Compound: CCC(=O)O [Propionic, Propionic acid]
- TS in Equilibrium with Aqueous Solutions of (mol/kg) 0.05 (0.05 mol/kg equilibrium aqueous phase): 1.7
- TS in Equilibrium with Aqueous Solutions of (mol/kg) 0.2 (0.2 mol/kg equilibrium aqueous phase): 1.5
- TS in Equilibrium with Aqueous Solutions of (mol/kg) 0.3 (0.3 mol/kg equilibrium aqueous phase): 1.3
- TS in Equilibrium with Aqueous Solutions of (mol/kg) 0.475 (0.475 mol/kg equilibrium aqueous phase): 1.1
